In ChEMBL document CHEMBL1773059, “NMS-P937, a 4,5-dihydro-1H-pyrazolo[4,3-h]quinazoline derivative as potent and selective Polo-like kinase 1 inhibitor” (Bioorg Med Chem Lett, 2011):

Key:
[1] = system: Mus musculus; assay: Toxicity in CD1 nu/nu mouse xenografted with human HCT116 cells assessed as reversible body weight loss at 45 mg/kg, iv BID administered on days 1 to 3 in weekly scheduling for 2 cycles measured on day 15; format: organism-based, HCT-116; design: dose 45 mg/kg, route intravenous; conditions: in vivo
[2] = target: Eukaryotic elongation factor 2 kinase (Homo sapiens, UniProt O00418); assay: Inhibition of EEF2K assessed as [33P]gamma-ATP incorporation into substrate after 60 mins by gamma counting
[3] = Inhibition of SULU1 assessed as [33P]gamma-ATP incorporation into substrate after 60 mins by gamma counting
[4] = target: Ephrin type-A receptor 2 (Homo sapiens, UniProt P29317); assay: Inhibition of EphA2 assessed as [33P]gamma-ATP incorporation into substrate after 60 mins by gamma counting
[5] = target: Hepatocyte growth factor receptor (Homo sapiens, UniProt P08581); assay: Inhibition of MET assessed as [33P]gamma-ATP incorporation into substrate after 60 mins by gamma counting
Chain of Hepatocyte growth factor receptor (P08581 whole entry): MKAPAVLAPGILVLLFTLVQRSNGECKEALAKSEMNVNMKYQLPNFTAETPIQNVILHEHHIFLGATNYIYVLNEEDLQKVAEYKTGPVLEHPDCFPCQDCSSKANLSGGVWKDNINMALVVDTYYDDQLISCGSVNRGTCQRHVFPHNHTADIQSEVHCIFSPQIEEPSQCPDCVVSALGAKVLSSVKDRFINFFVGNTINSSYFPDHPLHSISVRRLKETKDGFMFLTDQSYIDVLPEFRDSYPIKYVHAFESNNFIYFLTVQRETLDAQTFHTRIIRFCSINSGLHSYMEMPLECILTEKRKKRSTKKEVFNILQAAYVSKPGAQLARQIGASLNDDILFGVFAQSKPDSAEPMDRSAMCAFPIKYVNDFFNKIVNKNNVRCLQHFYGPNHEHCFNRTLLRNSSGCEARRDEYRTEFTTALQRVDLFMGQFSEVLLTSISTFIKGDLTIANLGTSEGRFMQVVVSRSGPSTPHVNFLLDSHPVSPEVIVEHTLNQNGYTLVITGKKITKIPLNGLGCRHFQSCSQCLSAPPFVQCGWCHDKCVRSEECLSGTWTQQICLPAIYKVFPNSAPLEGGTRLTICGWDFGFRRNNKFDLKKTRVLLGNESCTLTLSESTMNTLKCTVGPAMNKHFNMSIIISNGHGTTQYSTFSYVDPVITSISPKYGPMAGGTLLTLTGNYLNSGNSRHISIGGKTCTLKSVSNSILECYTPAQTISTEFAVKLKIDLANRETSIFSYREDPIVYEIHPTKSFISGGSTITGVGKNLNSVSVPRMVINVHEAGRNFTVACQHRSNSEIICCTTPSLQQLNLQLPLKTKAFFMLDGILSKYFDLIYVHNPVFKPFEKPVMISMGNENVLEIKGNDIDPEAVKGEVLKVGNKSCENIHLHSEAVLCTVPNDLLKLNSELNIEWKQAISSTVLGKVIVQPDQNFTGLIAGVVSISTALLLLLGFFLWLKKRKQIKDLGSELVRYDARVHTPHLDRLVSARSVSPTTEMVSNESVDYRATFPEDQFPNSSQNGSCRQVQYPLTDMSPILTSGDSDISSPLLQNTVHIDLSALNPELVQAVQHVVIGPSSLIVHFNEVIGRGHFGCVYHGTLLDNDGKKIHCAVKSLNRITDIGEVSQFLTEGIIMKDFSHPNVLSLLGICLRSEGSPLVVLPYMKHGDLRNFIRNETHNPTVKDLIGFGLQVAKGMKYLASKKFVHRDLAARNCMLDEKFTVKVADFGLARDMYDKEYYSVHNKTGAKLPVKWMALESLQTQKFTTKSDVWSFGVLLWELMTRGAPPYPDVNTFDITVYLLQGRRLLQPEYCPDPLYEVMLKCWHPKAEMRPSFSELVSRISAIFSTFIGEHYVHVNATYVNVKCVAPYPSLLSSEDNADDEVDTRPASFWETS

[6] = target: Focal adhesion kinase 1 (Homo sapiens, UniProt Q05397); assay: Inhibition of FAK assessed as [33P]gamma-ATP incorporation into substrate after 60 mins by gamma counting
[7] = target: Non-receptor tyrosine-protein kinase TYK2 (Homo sapiens, UniProt P29597); assay: Inhibition of TYK2 assessed as [33P]gamma-ATP incorporation into substrate after 60 mins by gamma counting
[8] = target: Insulin receptor (Homo sapiens, UniProt P06213); assay: Inhibition of IR assessed as [33P]gamma-ATP incorporation into substrate after 60 mins by gamma counting
[9] = target: Cyclin-dependent kinase 1/cyclin B1 (Homo sapiens, UniProt P06493); assay: Inhibition of CDK1/CYCB assessed as [33P]gamma-ATP incorporation into substrate after 60 mins by gamma counting; format: protein-complex assay
[10] = target: Tyrosine-protein kinase SYK (Homo sapiens, UniProt P43405); assay: Inhibition of Syk assessed as [33P]gamma-ATP incorporation into substrate after 60 mins by gamma counting
[11] = target: Tyrosine-protein kinase JAK1 (Homo sapiens, UniProt P23458); assay: Inhibition of JAK1 assessed as [33P]gamma-ATP incorporation into substrate after 60 mins by gamma counting
Chain of Tyrosine-protein kinase JAK1 (P23458 whole entry): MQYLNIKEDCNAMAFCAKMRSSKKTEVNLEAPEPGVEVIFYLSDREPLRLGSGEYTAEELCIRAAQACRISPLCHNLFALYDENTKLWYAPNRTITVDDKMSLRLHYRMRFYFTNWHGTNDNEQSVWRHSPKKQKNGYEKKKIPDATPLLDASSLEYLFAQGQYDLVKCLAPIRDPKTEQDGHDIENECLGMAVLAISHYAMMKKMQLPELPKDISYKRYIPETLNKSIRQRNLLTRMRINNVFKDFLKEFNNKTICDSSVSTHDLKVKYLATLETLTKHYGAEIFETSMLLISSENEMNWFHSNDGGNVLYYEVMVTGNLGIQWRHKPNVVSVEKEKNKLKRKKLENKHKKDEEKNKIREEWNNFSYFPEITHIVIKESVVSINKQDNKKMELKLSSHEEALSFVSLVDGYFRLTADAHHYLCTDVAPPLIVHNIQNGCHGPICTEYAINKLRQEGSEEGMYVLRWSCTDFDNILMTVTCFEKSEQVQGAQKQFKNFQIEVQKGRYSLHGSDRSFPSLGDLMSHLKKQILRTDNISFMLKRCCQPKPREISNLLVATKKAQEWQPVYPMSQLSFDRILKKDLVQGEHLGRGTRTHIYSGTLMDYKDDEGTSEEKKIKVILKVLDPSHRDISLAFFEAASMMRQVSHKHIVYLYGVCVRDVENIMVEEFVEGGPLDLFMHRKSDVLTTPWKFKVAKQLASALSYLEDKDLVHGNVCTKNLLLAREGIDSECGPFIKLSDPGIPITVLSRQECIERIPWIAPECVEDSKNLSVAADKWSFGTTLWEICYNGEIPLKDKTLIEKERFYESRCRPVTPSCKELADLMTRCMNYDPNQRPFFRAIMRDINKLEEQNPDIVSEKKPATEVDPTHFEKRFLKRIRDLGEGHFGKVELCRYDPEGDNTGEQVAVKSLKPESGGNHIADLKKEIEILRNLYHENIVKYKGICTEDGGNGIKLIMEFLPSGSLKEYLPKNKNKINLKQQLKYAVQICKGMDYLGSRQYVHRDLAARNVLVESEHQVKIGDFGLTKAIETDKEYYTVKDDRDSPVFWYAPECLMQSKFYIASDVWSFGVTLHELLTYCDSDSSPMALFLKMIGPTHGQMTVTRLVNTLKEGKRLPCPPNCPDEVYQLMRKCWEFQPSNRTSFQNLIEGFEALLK

[12] = target: Fibroblast growth factor receptor 1 (Homo sapiens, UniProt P11362); assay: Inhibition of FGFR1 assessed as [33P]gamma-ATP incorporation into substrate after 60 mins by gamma counting
Chain of Fibroblast growth factor receptor 1 (P11362 whole entry): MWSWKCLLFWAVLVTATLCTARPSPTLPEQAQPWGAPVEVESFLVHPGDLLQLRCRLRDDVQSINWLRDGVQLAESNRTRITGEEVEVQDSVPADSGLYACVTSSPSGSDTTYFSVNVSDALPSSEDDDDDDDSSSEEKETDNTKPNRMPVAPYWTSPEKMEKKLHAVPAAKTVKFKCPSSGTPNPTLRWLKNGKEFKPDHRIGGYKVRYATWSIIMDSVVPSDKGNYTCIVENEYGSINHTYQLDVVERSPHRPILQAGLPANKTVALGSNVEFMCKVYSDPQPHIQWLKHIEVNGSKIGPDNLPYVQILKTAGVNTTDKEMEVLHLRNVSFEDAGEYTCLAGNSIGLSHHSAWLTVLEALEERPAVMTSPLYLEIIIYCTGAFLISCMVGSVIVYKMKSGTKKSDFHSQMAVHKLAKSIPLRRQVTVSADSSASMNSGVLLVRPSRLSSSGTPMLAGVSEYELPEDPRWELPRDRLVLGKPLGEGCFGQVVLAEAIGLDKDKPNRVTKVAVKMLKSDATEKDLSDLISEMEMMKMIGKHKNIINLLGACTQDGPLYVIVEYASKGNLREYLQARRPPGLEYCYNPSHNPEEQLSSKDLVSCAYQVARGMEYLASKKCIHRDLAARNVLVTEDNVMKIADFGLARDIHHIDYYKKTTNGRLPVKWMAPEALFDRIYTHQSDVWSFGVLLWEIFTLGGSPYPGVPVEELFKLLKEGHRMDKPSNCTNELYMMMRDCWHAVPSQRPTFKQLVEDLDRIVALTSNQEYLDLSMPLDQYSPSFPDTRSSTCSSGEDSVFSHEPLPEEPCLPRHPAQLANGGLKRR

[13] = target: Mitogen-activated protein kinase 1 (Homo sapiens, UniProt P28482); assay: Inhibition of ERK2 assessed as [33P]gamma-ATP incorporation into substrate after 60 mins by gamma counting
[14] = system: HCT-116; assay: Antitumor activity against human HCT116 cells xenografted in CD1 nu/nu mouse assessed as tumor growth inhibition at 45 mg/kg, iv BID administered on days 1 to 3 in weekly scheduling for 2 cycles measured on day 24; format: functional; conditions: HCT-116, 576 h, read-out: TGI
[15] = system: Mus musculus; assay: Toxicity in CD1 nu/nu mouse xenografted with human HCT116 cells assessed as reversible body weight loss at 90 mg/kg, po once daily administered on days 1 to 2 in weekly scheduling for 4 cycles measured on day 36; conditions: in vivo
[16] = target: Serine/threonine-protein kinase pim-2 (Homo sapiens, UniProt Q9P1W9); assay: Inhibition of PIM2 assessed as [33P]gamma-ATP incorporation into substrate after 60 mins by gamma counting
[17] = target: Serine/threonine-protein kinase PAK 4 (Homo sapiens, UniProt O96013); assay: Inhibition of PAK4 assessed as [33P]gamma-ATP incorporation into substrate after 60 mins by gamma counting
Chain of Serine/threonine-protein kinase PAK 4 (O96013 whole entry): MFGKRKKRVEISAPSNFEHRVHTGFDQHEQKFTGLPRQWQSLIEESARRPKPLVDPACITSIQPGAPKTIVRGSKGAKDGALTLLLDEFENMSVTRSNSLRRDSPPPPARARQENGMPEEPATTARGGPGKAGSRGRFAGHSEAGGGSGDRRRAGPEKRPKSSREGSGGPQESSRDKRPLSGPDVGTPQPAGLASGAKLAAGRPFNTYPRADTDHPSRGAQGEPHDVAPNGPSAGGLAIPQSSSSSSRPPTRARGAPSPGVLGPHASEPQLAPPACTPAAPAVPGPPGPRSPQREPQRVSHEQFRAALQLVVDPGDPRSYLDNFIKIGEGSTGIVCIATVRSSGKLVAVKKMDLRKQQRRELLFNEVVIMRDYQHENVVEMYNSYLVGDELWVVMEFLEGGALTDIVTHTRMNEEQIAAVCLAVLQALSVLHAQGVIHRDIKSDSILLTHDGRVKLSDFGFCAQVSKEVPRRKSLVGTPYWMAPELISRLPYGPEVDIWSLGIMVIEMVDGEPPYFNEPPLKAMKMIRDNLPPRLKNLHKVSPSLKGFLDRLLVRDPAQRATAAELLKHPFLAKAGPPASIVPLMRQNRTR

[18] = target: Maternal embryonic leucine zipper kinase (Homo sapiens, UniProt Q14680); assay: Inhibition of MELK assessed as [33P]gamma-ATP incorporation into substrate after 60 mins by gamma counting
[19] = target: Tyrosine-protein kinase JAK3 (Homo sapiens, UniProt P52333); assay: Inhibition of JAK3 assessed as [33P]gamma-ATP incorporation into substrate after 60 mins by gamma counting
[20] = target: cAMP-dependent protein kinase catalytic subunit alpha (Homo sapiens, UniProt P17612); assay: Inhibition of PKAalpha assessed as [33P]gamma-ATP incorporation into substrate after 60 mins by gamma counting
[21] = target: Proto-oncogene tyrosine-protein kinase ROS (Homo sapiens, UniProt P08922); assay: Inhibition of ROS1 assessed as [33P]gamma-ATP incorporation into substrate after 60 mins by gamma counting
[22] = target: Aurora kinase B (Homo sapiens, UniProt Q96GD4); assay: Inhibition of Aur-B assessed as [33P]gamma-ATP incorporation into substrate after 60 mins by gamma counting
[23] = system: HCT-116; assay: Antitumor activity against human HCT116 cells xenografted in CD1 nu/nu mouse assessed as tumor growth inhibition at 60 mg/kg, po administered once daily for 1 to 10 days measured on day 23; format: functional; conditions: read-out: TGI
[24] = target: Serine/threonine-protein kinase 26 (Homo sapiens, UniProt Q9P289); assay: Inhibition of MST4 assessed as [33P]gamma-ATP incorporation into substrate after 60 mins by gamma counting
Chain of Serine/threonine-protein kinase 26 (Q9P289 whole entry): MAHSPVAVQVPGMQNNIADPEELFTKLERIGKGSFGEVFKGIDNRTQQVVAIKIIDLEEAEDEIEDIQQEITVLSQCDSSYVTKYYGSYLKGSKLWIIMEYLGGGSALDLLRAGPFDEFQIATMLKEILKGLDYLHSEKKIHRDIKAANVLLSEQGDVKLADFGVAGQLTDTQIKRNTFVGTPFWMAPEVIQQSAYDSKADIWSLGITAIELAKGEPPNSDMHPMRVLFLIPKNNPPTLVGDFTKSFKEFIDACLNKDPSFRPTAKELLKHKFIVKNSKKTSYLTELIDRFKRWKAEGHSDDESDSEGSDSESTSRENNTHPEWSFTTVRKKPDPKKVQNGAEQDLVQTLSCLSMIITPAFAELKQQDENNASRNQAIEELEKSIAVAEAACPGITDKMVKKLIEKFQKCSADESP

[25] = target: Inhibitor of nuclear factor kappa-B kinase subunit beta (Homo sapiens, UniProt O14920); assay: Inhibition of IKK2 assessed as [33P]gamma-ATP incorporation into substrate after 60 mins by gamma counting
[26] = Intrinsic clearance in human liver microsomes at 1 uM; format: ADME, Microsome
[27] = target: MAP kinase-activated protein kinase 2 (Homo sapiens, UniProt P49137); assay: Inhibition of MAPKAPK2 assessed as [33P]gamma-ATP incorporation into substrate after 60 mins by gamma counting
[28] = Inhibition of PDGFR assessed as [33P]gamma-ATP incorporation into substrate after 60 mins by gamma counting
[29] = target: Glycogen synthase kinase-3 beta (Homo sapiens, UniProt P49841); assay: Inhibition of GSK3-beta assessed as [33P]gamma-ATP incorporation into substrate after 60 mins by gamma counting
Chain of Glycogen synthase kinase-3 beta (P49841 whole entry): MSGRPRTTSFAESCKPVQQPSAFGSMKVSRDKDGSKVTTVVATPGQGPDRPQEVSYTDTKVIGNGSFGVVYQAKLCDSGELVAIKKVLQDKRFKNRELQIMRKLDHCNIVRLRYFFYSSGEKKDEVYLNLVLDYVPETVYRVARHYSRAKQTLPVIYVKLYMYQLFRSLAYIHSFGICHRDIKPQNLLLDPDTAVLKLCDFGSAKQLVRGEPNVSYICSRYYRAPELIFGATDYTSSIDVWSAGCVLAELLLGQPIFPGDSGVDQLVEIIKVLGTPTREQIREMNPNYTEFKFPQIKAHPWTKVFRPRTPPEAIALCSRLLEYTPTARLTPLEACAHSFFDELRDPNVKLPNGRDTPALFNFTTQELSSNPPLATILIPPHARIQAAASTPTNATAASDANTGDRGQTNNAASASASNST

[30] = target: Aurora kinase A (Homo sapiens, UniProt O14965); assay: Inhibition of Aur-A assessed as [33P]gamma-ATP incorporation into substrate after 60 mins by gamma counting
[31] = system: Mus musculus; assay: Toxicity in CD1 nu/nu mouse xenografted with human HCT116 cells assessed as reversible body weight loss at 120 mg/kg, po once daily administered on days 1 to 2 in weekly scheduling for 4 cycles measured on day 29; conditions: in vivo
[32] = target: Serine/threonine-protein kinase NIM1 (Homo sapiens, UniProt Q8IY84); assay: Inhibition of NIM1 assessed as [33P]gamma-ATP incorporation into substrate after 60 mins by gamma counting
[33] = target: Serine/threonine-protein kinase Nek6 (Homo sapiens, UniProt Q9HC98); assay: Inhibition of NEK6 assessed as [33P]gamma-ATP incorporation into substrate after 60 mins by gamma counting
[34] = target: Serine/threonine-protein kinase tousled-like 2 (Homo sapiens, UniProt Q86UE8); assay: Inhibition of TLK2 assessed as [33P]gamma-ATP incorporation into substrate after 60 mins by gamma counting

## CN1CCN(c2ccc(OC(F)(F)F)c(Nc3ncc4c(n3)-c3c(c(C(N)=O)nn3CCO)CC4)c2)CC1 [ONVANSERTIB]
[1]
  Activity: 16%
[2]
  IC50: > 10 µM
[3]
  IC50: > 10 µM
[4]
  IC50: > 10 µM
[5]
  IC50: > 10 µM
[6]
  IC50: > 10 µM
[7]
  IC50: > 10 µM
[8]
  IC50: > 10 µM
[9]
  IC50: > 10 µM
[10]
  IC50: > 10 µM
[11]
  IC50: > 10 µM
[12]
  IC50: > 10 µM
[13]
  IC50: > 10 µM
[14]
  inhibition in vivo at 45 mg/kg: 83%
[15]
  Activity: 10%
[16]
  IC50: > 10 µM
[17]
  IC50: > 10 µM
[18]
  IC50: […]
[19]
  IC50: > 10 µM
[20]
  IC50: > 10 µM
[21]
  IC50: > 10 µM
[22]
  IC50: > 10 µM
[23]
  inhibition in vivo at 60 mg/kg: 89%
[24]
  IC50: > 10 µM
[25]
  IC50: > 10 µM
[26]
  CLint scaled at 1 µM: 16.9 mL/min/kg
[27]
  IC50: > 10 µM
[28]
  IC50: > 10 µM
[29]
  IC50: > 10 µM
[30]
  IC50: > 10 µM
[31]
  Activity: 18%
[32]
  IC50: > 10 µM
[33]
  IC50: > 10 µM
[34]
  IC50: > 10 µM
